From patent publication US12404304B1, “Telomerase reverse transcriptase (TERT) expression enhancing compounds and methods for using the same” (Sierra Sciences, LLC, priority 2007, dated 2025)
Where two headings read alike, the source gives them in different places.

Legend:
viable cells in culture = test: Cell viability assay (CellTiter-Glo Luminescent Cell Viability Assay, ATP quantitation, percent of vehicle control)
[1] = tested on: human TERT expression (hTERT mRNA); test: Quantitative real-time RT-PCR of hTERT mRNA expression (Ct, transcripts) in compound-treated cells; assay type: cell-based
Summary of the method: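 Read-out is cycle threshold, the cycle at which probe fluorescence released by Taq 5′-nuclease activity crosses a set level; Ct falls as hTERT mRNA rises. cDNA of treated and untreated cells was compared, with starting transcripts quantified against a known-cDNA standard curve.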

SMILES | Average Cell Viability after 24 Hours (% DMSO) (viable cells in culture) | Average Number of hTERT Transcripts ([1]; quantitative real-time RT-PCR) | Average Number of hTERT Transcripts [1]
CCCCNC(=O)CCc1c(C)nn(-c2nc(C)c(C)s2)c1O [compound 1135] | 88.69 | 23.88 | 
CCCCN1C(C(=O)c2ccccc2)=C(OC(=O)C(C)C)c2ccccc2S1(=O)=O [compound 1217] | 45.00 | 10.04 | 
O=C(CSc1ccc(-c2ccccn2)nn1)Nc1ccccc1F [compound 1257] | 82.05 | 37.50 | 
CCc1c(C)nc(-n2nc(C)cc2NC(=O)C2c3ccccc3Oc3ccccc32)[nH]c1=O [compound 1296] | 73.20 | 60.31 | 
O=C(COc1ccc(F)cc1)N/N=C/c1cccc2cccnc12 [compound 1287] | 67.01 | 12.08 | 
O=C(O)/C=C1\NC(=O)c2ccccc21 [compound 1354] | 96.80 | 14.31 | 
Nc1c(C(=O)Nc2ccc(Cl)c(Cl)c2)sc2nc3c(cc12)CCCC3 [compound 1317] | 88.17 | 10.56 | 
O=[N+]([O-])c1ccc(S(=O)(=O)Nc2cc(Cl)ccc2O)cc1 [compound 1385] | 78.86 |  | 21.71
COC(=O)COc1ccc(S(=O)(=O)NCc2ccc(C)cc2)cc1 [compound 1551] | 40.32 |  | 16.60
CCOc1cccc(/C=N/NC(=O)CNc2ccc(C)cc2)c1O [compound 1526] | 79.56 |  | 8.14
CC(C)CNC(=O)c1cc(-c2cccs2)on1 [compound 1189] | 83.26 | 73.15 | 
COc1ccc2sc(Nc3nc(C)n(-c4ccccc4)c(=O)n3)nc2c1 [compound 1170] | 36.74 | 102.53 | 
Cc1ccc(-n2c(=O)oc3ccc(Cl)cc3c2=O)cc1 [compound 1241] | 77.91 | 39.79 | 
COC(=O)CSc1nnc(-c2sc3cc(Cl)ccc3c2Cl)n1C [compound 1435] | 60.23 |  | 48.10
O=C(c1cnn2c(C(F)(F)F)cc(-c3ccco3)nc12)N1CCCCC1 [compound 1471] | 90.01 |  | 148.88
COc1ccc(Br)cc1CNC(=O)Cn1ncc2c(=O)oc3ccccc3c21 [compound 1328] | 71.81 | 5.42 | 
O=C1c2oc3ccccc3c(=O)c2C(c2cccc(OCc3ccccc3)c2)N1c1nccs1 (centres unmarked) [compound 1324] | 57.19 | 8.42 | 
O=C(NCCN1CCOCC1)c1cc(-c2ccccc2)on1 [compound 1506] | 84.31 |  | 52.39
CCCc1cc(=O)n2ncc(-c3cccc(Br)c3)c2[nH]1 [compound 1486] | 73.20 |  | 51.80
CCOC(=O)N1CCN(C(=O)CCc2ccc(S(=O)(=O)NCCc3ccccc3)cc2)CC1 [compound 1441] | 101.03 |  | 5.06
Cc1cccnc1Nc1nc(-c2ccccn2)cs1 [compound 1195] | 95.66 | 220.50 | 
O=C(N/N=C/c1c(O)ccc2ccccc12)c1ccc(CO)nc1 [compound 1527] | 89.01 |  | 15.53
Cc1oc2cc(OCC(=O)OCc3ccccc3)ccc2c(=O)c1Oc1ccccc1 [compound 1402] | 86.55 |  | 29.82
Cn1cc(C(=O)N/N=C/c2c(O)ccc3ccccc23)ccc1=O [compound 1272] | 57.10 | 33.61 | 
O=C(COc1ccc(Cl)cc1)N/N=C/c1cccc2cccnc12 [compound 1290] | 62.81 | 9.13 | 
CC1=NN(c2nc3ccccc3s2)C(=O)C1CCC(C)C (centres unmarked) [compound 1109] | 67.53 | 35.79 | 
Cc1cc(C)c2c3c1C1C=CCC1CN3C(C(=O)O)C1CC=CC21 (centres unmarked) [compound 1460] | 89.11 |  | 46.47
COc1cc(CCNC(=O)c2cc(-c3cccs3)on2)ccc1O [compound 1520] | 98.51 |  | 322.93

SMILES | Average Cell Viability after 24 Hours (% DMSO) (viable cells in culture) | Average Number of hTERT Transcripts ([1]; quantitative real-time RT-PCR) | Average Number of hTERT Transcripts [1]
O=C(N/N=C/c1cc(Br)cc(I)c1O)c1ccccn1 [compound 1274] | 75.52 | 20.59 | 
Cc1ccc(C)c(NC(=O)c2ccccc2NS(=O)(=O)c2cc([N+](=O)[O-])ccc2C)c1 [compound 1539] | 65.11 |  | 37.11
Cc1c(OS(=O)(=O)c2ccccc2)ccc2c3c(c(=O)oc12)CCCC3 [compound 1533] | 99.57 |  | 35.76
CCc1ccc(S(=O)(=O)N(C(=O)c2ccccc2)c2ccc3oc(C)c(C(C)=O)c3c2)cc1 [compound 1236] | 86.61 | 5.24 | 
Clc1cccc(CSc2ccc(-c3ccccn3)nn2)c1 [compound 1260] | 60.48 | 17.25 | 
O=C(N/N=C/c1cc(Cl)ccc1O)c1ccc(Br)cc1 [compound 1264] | 64.22 | 33.41 | 
Cc1ccc(-c2cc(C(=O)Nc3nc4ccc(S(C)(=O)=O)cc4s3)no2)cc1 [compound 1495] | 85.84 |  | 10.81
O=C(Nc1ccc(OC(F)(F)C(F)F)cc1)c1ccccc1O [compound 1386] | 30.71 |  | 11.93
O=C(CCN1C(=O)c2cccc3cccc(c23)C1=O)Nc1ccon1 [compound 1349] | 76.50 | 12.52 | 
Oc1cc(-c2ccc(Cl)cc2)nn1-c1nc2ccccc2[nH]1 [compound 1121] | 52.77 | 119.73 | 
COc1ccc(C2CC(=O)C3=C(C2)Nc2ccccc2N(C(=O)CCC(=O)O)C3c2cccnc2)cc1OC (centres unmarked) [compound 1406] | 105.29 |  | 4.62
CCOC(=O)COc1ccc2c(C)cc(=O)oc2c1C [compound 1308] | 90.12 | 3.16 | 
COC(=O)COc1ccc(NC(=O)CSc2ccc(Cl)cc2)cc1 [compound 1346] | 56.33 | 31.23 | 
CCn1ncc([N+](=O)[O-])c1C(=O)Nc1sc2c(c1C#N)CCCCCC2 [compound 1325] | 94.20 | 29.36 | 
COc1cc(CCNC(=O)c2cc(-c3cccs3)on2)cc(OC)c1 [compound 1501] | 99.31 |  | 24.13
O=C(Nc1nc(COc2ccccc2)cs1)c1sc2cc(Cl)ccc2c1Cl [compound 1410] | 75.12 |  | 8.90
COc1ccc(OC)c(N(C(=O)Cc2ccccc2)c2nc(-c3ccc(C)cc3)c(C)s2)c1 [compound 1416] | 95.26 |  | 15.42
CCCCOCCCNC(=O)c1cc(-c2cccs2)on1 [compound 1507] | 102.58 |  | 58.76
O=C(CNC(=O)c1cc(-c2cccs2)on1)c1ccccc1 [compound 1492] | 91.36 |  | 6.45
Cc1nn2c(=O)cc(-c3ccccc3)[nH]c2c1-c1ccc(F)cc1 [compound 1152] | 73.68 | 64.86 | 
COc1ccc(C(=O)NC(=S)Nc2ccc(C(=O)O)cc2)cc1 [compound 1381] | 87.38 |  | 8.62
O=C(CSc1ccc(-c2ccccn2)nn1)Nc1ccc2c(c1)OCCO2 [compound 1256] | 73.30 | 33.82 | 
Cc1csc(-n2nc(C)c(CC(=O)Nc3ccc(Br)cc3)c2O)n1 [compound 1123] | 79.37 | 58.23 | 
COc1ccc(-c2nnc(NC(=O)c3ccc(Cl)cc3)o2)cc1 [compound 1178] | 83.07 | 63.78 | 
Cc1cccn2c(=O)cc(COc3ccc(NC(=O)c4cccs4)cc3)nc12 [compound 1454] | 97.09 |  | 3.99
Cc1csc(-n2nc(C)c(CCC(=O)Nc3ccc(F)cc3)c2O)n1 [compound 1132] | 91.26 | 81.62 | 
O=C(Nc1nc(-c2ccccn2)cs1)c1nc2ccccc2s1 [compound 1201] | 74.59 | 49.55 | 
